Experiments:
[1] = tested on: normal human epidermal keratinocytes (NHEK); assay: Cell differentiation degree in normal human epidermal keratinocytes; type: cell-based; conditions: 24 hours of treatment, compared with untreated control group, FIG. 2
From the text: (§1) • A human epidermal cell line (normal human epidermal keratinocyte; NHEK) is a human fetal transdermal cell line and was used after being distributed from ATCC.
(§2) It was a cell obtained from primary culture and was used for confirming biochemical changes within the cell by ABT-751 or TN-16 under normal conditions, not disease conditions. • Experimental animal: Since a hos:HR-1(hairless) mouse has no hair in skin disease research, it allows skin-related research to be performed by directly applying a drug on skin or inducing skin diseases by chemical or biological allergen.
The normal human epidermal keratinocytes (NHEK) in culture was treated with ABT-751 and TN-16, respectively to measure the expression amount of filaggrin and confirm a change in cell differentiation degree.
NHEK was treated with ABT-751 and TN-16 by concentrations of 0, 0.5, 1.0, and 2.5 μM, respectively, and after 24 hours of treatment, the expression amount of filaggrin and the cell differentiation degree were observed.

filaggrin [2] = assay: Expression amount of filaggrin in NHEK by RNA extraction and RT-qPCR; type: cell-based, human; conditions: NHEK, 0, 0.5, 1.0 and 2.5 μM, after 24 hours of treatment; FIGS. 1A and 1B
From the text: as §1, §2
A normal human epidermal keratinocyte (NHEK) on which ABT-751, TN-16, or a control sample was applied, or a mouse skin tissue was dissolved using a TRI reagent (MRC), and then RNA in cells was extracted using Rneasy Mini Kit (Qiagen).
The extracted RNA was reverse-transcribed with ImProm-II TM Reverse Transcription Kit (Promega) to synthesize cDNA, and then an amount of filaggrin was measured by a quantitative PCR (qPCR) through Real-Time PCR Detection System (Bio-Rad, CFX96).
The normal human epidermal keratinocytes (NHEK) in culture was treated with ABT-751 and TN-16, respectively to measure the expression amount of filaggrin and confirm a change in cell differentiation degree. […]

HR-1 mouse skin = assay: Skin barrier function test (skin moisture loss, skin barrier index) in HR-1 mouse; type: in vivo, hos:HR-1 mouse; conditions: 4% formulation applied on back skin once a day, vs 0% formulation, effect grew with days of application, FIG. 4
From the text: as §2
In addition, it has a skin thickness of about 0.4 mm at 8 to 10 weeks of age, which is similar to the skin of a human, and is useful for research on pathogenesis mechanism of skin diseases and confirmation of biochemical changes in skin tissue.
2 hours after applying ABT-751 or TN-16, skin moisture loss, a skin barrier index, and a comprehensive index on the application area were measured for 3 weeks with a precision measuring instrument (Courage-khazaka electronic GmbH, MPA10), and recorded.
ABT-751 and TN-16 of 0, 1, 2, and 4% formulations were applied on the back skin of a hairless hos:HR-1 mouse (hereinafter, referred to as HR-1 mouse) in the same amount once a day for 3 weeks, respectively.
After each application, skin moisture loss and a skin barrier index were measured by the method of the test example.
After applying the control group (0% formulation ABT-751 or 0% formulation TN-16) and ABT-751 or TN-16 of a 4% formulation, respectively, skin moisture loss and a skin barrier index were measured, and the results are shown in FIG. 4.

filaggrin [3] = assay: Expression amount of filaggrin in HR-1 mouse back skin tissue (RT-qPCR and Western blot); type: in vivo, hos:HR-1 mouse; conditions: HR-1 mouse back skin, 1, 2 and 4% formulations applied once a day, vs 0% formulation control; RNA and protein; FIGS. 3A to 3C
From the text: as §2
In addition, it has a skin thickness of about 0.4 mm at 8 to 10 weeks of age, which is similar to the skin of a human, and is useful for research on pathogenesis mechanism of skin diseases and confirmation of biochemical changes in skin tissue. […]
The extracted RNA was reverse-transcribed with ImProm-II TM Reverse Transcription Kit (Promega) to synthesize cDNA, and then an amount of filaggrin was measured by a quantitative PCR (qPCR) through Real-Time PCR Detection System (Bio-Rad, CFX96). […]
The thin film was reacted with an ECL solution (Thermo Fisher), and the protein after the reaction was detected using a luminescence reaction measuring instrument (Fusion Solo, Vilber). […]
Each of RNA and protein was extracted from the back skin tissue on which ABT-751 or TN-16 was applied, respectively, by the method of the text example and the expression amount of filaggrin was measured, and the results are shown in FIG. 3.

Compound	cell differentiation degree [1]	expression amount of filaggrin (filaggrin [2])	skin barrier index (HR-1 mouse skin)	skin moisture loss (HR-1 mouse skin)	expression amount of filaggrin in the skin tissue (filaggrin [3])
COc1ccc(S(=O)(=O)Nc2cccnc2Nc2ccc(O)cc2)cc1 [ABT-751, N-[2-[(4-Hydroxyphenyl)amino]pyridin-3-yl]-4-methoxybenzenesulfonamide]	significantly increased	increased depending on the ABT-751 and TN-16 treatment concentrations	increased	decreased	increased in a concentration-dependent manner
C/C(Nc1ccccc1)=C1/C(=O)NC(Cc2ccccc2)C1=O (stereo not drawn) [TN-16, 3-[1-(phenylamino)ethylidene]-5-(phenylmethyl)-2,4-pyrrolidinedione]		increased depending on the ABT-751 and TN-16 treatment concentrations	increased	decreased	increased in a concentration-dependent manner

From patent US20240325358A1, “PHARMACEUTICAL COMPOSITION FOR PREVENTION OR TREATMENT OF ALLERGIC SKIN DISEASE OR SKIN PRURITUS” (CUePEAK BIO. Co., Ltd., priority 2023, published 2024)
